The data set concerns CCRIS mutagenicity, Ames/micronucleus/aberration tests. The experiment in a line: CCRIS mutagenicity studies.

The source made the active and inactive calls. How the calls were made is not given here.

Turning to `CC(C)n1c(/C=C/[C@H](O)C[C@H](O)CC(=O)O)c(-c2ccc(F)cc2)c2ccccc21`, the mutagenic call is “inactive; negative” (End Point: AMES SALMONELLA TYPHIMURIUM, Test System: TA98, Metabolic Activation: NONE, Method: STANDARD PLATE); “inactive; negative” (End Point: AMES SALMONELLA TYPHIMURIUM, Test System: TA98, Metabolic Activation: RAT, LIVER, S-9, AROCLOR 1254, Method: STANDARD PLATE); “inactive; negative” (End Point: AMES SALMONELLA TYPHIMURIUM, Test System: TA100, Metabolic Activation: NONE, Method: STANDARD PLATE); “inactive; negative” (End Point: AMES SALMONELLA TYPHIMURIUM, Test System: TA100, Metabolic Activation: RAT, LIVER, S-9, AROCLOR 1254, Method: STANDARD PLATE); “inactive; negative” (End Point: AMES SALMONELLA TYPHIMURIUM, Test System: TA1535, Metabolic Activation: NONE, Method: STANDARD PLATE); “inactive; negative” (End Point: AMES SALMONELLA TYPHIMURIUM, Test System: TA1535, Metabolic Activation: RAT, LIVER, S-9, AROCLOR 1254, Method: STANDARD PLATE). In addition, the mutagenic call runs as follows: (End Point: AMES SALMONELLA TYPHIMURIUM, Test System: TA1537, Metabolic Activation: NONE, Method: STANDARD PLATE) “inactive; negative”; (End Point: AMES SALMONELLA TYPHIMURIUM, Test System: TA1537, Metabolic Activation: RAT, LIVER, S-9, AROCLOR 1254, Method: STANDARD PLATE) “inactive; negative”; (End Point: AMES SALMONELLA TYPHIMURIUM, Test System: TA1538, Metabolic Activation: NONE, Method: STANDARD PLATE) “inactive; negative”; (End Point: AMES SALMONELLA TYPHIMURIUM, Test System: TA1538, Metabolic Activation: RAT, LIVER, S-9, AROCLOR 1254, Method: STANDARD PLATE) “inactive; negative”; (End Point: E. COLI, Test System: WP2 UVRA/PKM101, Metabolic Activation: NONE, Method: STANDARD PLATE) “inactive; negative”; (End Point: E. COLI, Test System: WP2 UVRA/PKM101, Metabolic Activation: RAT, LIVER, S-9, AROCLOR 1254, Method: STANDARD PLATE) “inactive; negative”. For the same compound, the mutagenic call was “inactive; negative” (End Point: E. COLI, Test System: WP2 UVRA, Metabolic Activation: NONE, Method: STANDARD PLATE); “inactive; negative” (End Point: E. COLI, Test System: WP2 UVRA, Metabolic Activation: RAT, LIVER, S-9, AROCLOR 1254, Method: STANDARD PLATE); “inactive; negative” (End Point: IN VITRO CHROMOSOMAL ABERRATIONS, Test System: CHINESE HAMSTER V79A, Metabolic Activation: NONE); “inactive; negative” (End Point: IN VITRO CHROMOSOMAL ABERRATIONS, Test System: CHINESE HAMSTER V79A, Metabolic Activation: RAT, LIVER, S-9, AROCLOR 1254); “inactive; negative” (End Point: IN VIVO MICRONUCLEUS, Test System: BONE MARROW POLYCHROMATIC ERYTHROCYTES, Species: MOUSE, Strain/Sex: CD-1/MALE, FEMALE, Route: GAVAGE); “inactive; negative” (Test System: AMES SALMONELLA TYPHIMURIUM, Strain/Indicator: TA98, Metabolic Activation: NONE, Method: STANDARD PLATE). The mutagenic call is, setting by setting: (Test System: AMES SALMONELLA TYPHIMURIUM, Strain/Indicator: TA98, Metabolic Activation: RAT, LIVER, S-9, AROCLOR 1254, Method: STANDARD PLATE) “inactive; negative”; (Test System: AMES SALMONELLA TYPHIMURIUM, Strain/Indicator: TA100, Metabolic Activation: NONE, Method: STANDARD PLATE) “inactive; negative”; (Test System: AMES SALMONELLA TYPHIMURIUM, Strain/Indicator: TA100, Metabolic Activation: RAT, LIVER, S-9, AROCLOR 1254, Method: STANDARD PLATE) “inactive; negative”; (Test System: AMES SALMONELLA TYPHIMURIUM, Strain/Indicator: TA1535, Metabolic Activation: NONE, Method: STANDARD PLATE) “inactive; negative”; (Test System: AMES SALMONELLA TYPHIMURIUM, Strain/Indicator: TA1535, Metabolic Activation: RAT, LIVER, S-9, AROCLOR 1254, Method: STANDARD PLATE) “inactive; negative”; (Test System: AMES SALMONELLA TYPHIMURIUM, Strain/Indicator: TA1537, Metabolic Activation: NONE, Method: STANDARD PLATE) “inactive; negative”. Further, the mutagenic call was “inactive; negative” (Test System: AMES SALMONELLA TYPHIMURIUM, Strain/Indicator: TA1537, Metabolic Activation: RAT, LIVER, S-9, AROCLOR 1254, Method: STANDARD PLATE); “inactive; negative” (Test System: AMES SALMONELLA TYPHIMURIUM, Strain/Indicator: TA1538, Metabolic Activation: NONE, Method: STANDARD PLATE); “inactive; negative” (Test System: AMES SALMONELLA TYPHIMURIUM, Strain/Indicator: TA1538, Metabolic Activation: RAT, LIVER, S-9, AROCLOR 1254, Method: STANDARD PLATE); “inactive; negative” (Test System: CHINESE HAMSTER FIBROBLASTS, Strain/Indicator: CHINESE HAMSTER V79A/HGPRT, Metabolic Activation: NONE); “inactive; negative” (Test System: CHINESE HAMSTER FIBROBLASTS, Strain/Indicator: CHINESE HAMSTER V79A/HGPRT, Metabolic Activation: RAT, LIVER, S-9, AROCLOR 1254); “inactive; negative” (Test System: CHINESE HAMSTER V-79, Strain/Indicator: V-79 (HGPRT), Metabolic Activation: NONE). For the same compound, the mutagenic call by setting is: (Test System: CHINESE HAMSTER V-79, Strain/Indicator: V-79 (HGPRT), Metabolic Activation: RAT, LIVER, S-9, AROCLOR 1254) “inactive; negative”; (Test System: E. COLI, Strain/Indicator: WP2 UVRA (PKM101), Metabolic Activation: NONE, Method: STANDARD PLATE) “inactive; negative”; (Test System: E. COLI, Strain/Indicator: WP2 UVRA (PKM101), Metabolic Activation: RAT, LIVER, S-9, AROCLOR 1254, Method: STANDARD PLATE) “inactive; negative”; (Test System: E. COLI, Strain/Indicator: WP2 UVRA, Metabolic Activation: NONE, Method: STANDARD PLATE) “inactive; negative”; (Test System: E. COLI, Strain/Indicator: WP2 UVRA, Metabolic Activation: RAT, LIVER, S-9, AROCLOR 1254, Method: STANDARD PLATE) “inactive; negative”.

For the compound `Cc1cc(=O)oc2cc(O)ccc12`, the mutagenic call is, setting by setting: (Test System: AMES SALMONELLA TYPHIMURIUM, Strain/Indicator: TA98, Metabolic Activation: HAMSTER, LIVER, S-9, AROCLOR 1254, Method: PREINCUBATION) “inactive; negative”; (Test System: AMES SALMONELLA TYPHIMURIUM, Strain/Indicator: TA98, Metabolic Activation: NONE, Method: PREINCUBATION) “inactive; negative”; (Test System: AMES SALMONELLA TYPHIMURIUM, Strain/Indicator: TA98, Metabolic Activation: RAT, LIVER, S-9, AROCLOR 1254, Method: PREINCUBATION) “inactive; negative”; (Test System: AMES SALMONELLA TYPHIMURIUM, Strain/Indicator: TA100, Metabolic Activation: HAMSTER, LIVER, S-9, AROCLOR 1254, Method: PREINCUBATION) “inactive; negative”; (Test System: AMES SALMONELLA TYPHIMURIUM, Strain/Indicator: TA100, Metabolic Activation: NONE, Method: PREINCUBATION) “inactive; negative”; (Test System: AMES SALMONELLA TYPHIMURIUM, Strain/Indicator: TA100, Metabolic Activation: RAT, LIVER, S-9, AROCLOR 1254, Method: PREINCUBATION) “inactive; negative”. For the same compound, the mutagenic call was “inactive; negative” (Test System: AMES SALMONELLA TYPHIMURIUM, Strain/Indicator: TA1535, Metabolic Activation: HAMSTER, LIVER, S-9, AROCLOR 1254, Method: PREINCUBATION); “inactive; negative” (Test System: AMES SALMONELLA TYPHIMURIUM, Strain/Indicator: TA1535, Metabolic Activation: NONE, Method: PREINCUBATION); “inactive; negative” (Test System: AMES SALMONELLA TYPHIMURIUM, Strain/Indicator: TA1535, Metabolic Activation: RAT, LIVER, S-9, AROCLOR 1254, Method: PREINCUBATION); “inactive; negative” (Test System: AMES SALMONELLA TYPHIMURIUM, Strain/Indicator: TA1537, Metabolic Activation: HAMSTER, LIVER, S-9, AROCLOR 1254, Method: PREINCUBATION); “inactive; negative” (Test System: AMES SALMONELLA TYPHIMURIUM, Strain/Indicator: TA1537, Metabolic Activation: NONE, Method: PREINCUBATION); “inactive; negative” (Test System: AMES SALMONELLA TYPHIMURIUM, Strain/Indicator: TA1537, Metabolic Activation: RAT, LIVER, S-9, AROCLOR 1254, Method: PREINCUBATION).

For the compound `O=C([O-])c1ccc2ccccc2c1.O=C([O-])c1ccc2ccccc2c1.[Pb+2]`, the mutagenic call (Test System: MOUSE LYMPHOMA, Strain/Indicator: L5178Y (TK+/TK-), Metabolic Activation: NONE, Method: SUSPENSION/PLATE) is “active; positive. reevaluation of results: equivocal”.

The values are drawn from PubChem BioAssay AID1259407 (Chemical Carcinogenesis Research Information System (CCRIS), 2018).
